From BindingDB's records for doi:10.1021/acs.jmedchem.9b00186 (Bristol-Myers Squibb Research & Development, 2019)

Columns and labels:
[1] = Antagonist activity at PAR4 in human platelet rich plasma assessed as inhibition of gamma-thrombin-induced platelet aggregation preincubated for 5 mins followed by gamma-thrombin addition and measured in presence of recombinant hirudin
[2] = Antagonist activity at PAR4 in human washed platelets assessed as inhibition of gamma-thrombin-induced platelet aggregation preincubated for 5 mins followed by gamma-thrombin addition and measured every 50 secs for up to 15 mins starting from 10 secs post gamma-thrombin addition in presence of recombinant hirudin

COc1cc(OCCOc2ccccc2)c2cc(-c3cn4nc(OC)sc4n3)oc2c1
IC50 [1]: 0.48 µM

COc1ccc2oc(-c3cn4nc(OC)sc4n3)cc2c1 [US9862730, Example 93]
IC50 [1]: > 30 µM
IC50 [2]: > 30 µM

COc1cc(OCc2cccc(CCc3ccccc3)c2)c2cc(-c3cn4nc(OC)sc4n3)oc2c1
IC50 [1]: 1.2 µM

COc1nn2cc(-c3cc4ccc(OC)c(OC)c4o3)nc2s1 [US9862730, Example 10]
IC50 [1]: > 30 µM
IC50 [2]: > 30 µM

COc1cc(OCc2ccccc2OCc2ccccc2)c2cc(-c3cn4nc(OC)sc4n3)oc2c1
IC50 [1]: 2.5 µM

COc1ccc2cc(-c3cn4nc(OC)sc4n3)oc2c1 [US9862730, Example 71]
IC50 [1]: 0.48 µM
IC50 [2]: 0.12 µM

COc1cc(OCc2ccc(C(F)(F)F)cc2)c2cc(-c3cn4nc(OC)sc4n3)oc2c1
IC50 [1]: 1.8 µM

COc1cc(OCc2ccccc2C)c2cc(-c3cn4nc(OC)sc4n3)oc2c1
IC50 [1]: 3.6 µM

c1ccc2oc(-c3cn4nc(C5CC5)sc4n3)cc2c1 [US9862730, Example 63]
IC50 [2]: > 30 µM

COc1nn2cc(-c3cc4cccc(OC)c4o3)nc2s1 [US9862730, Example 9]
IC50 [1]: 3.5 µM
IC50 [2]: 0.24 µM

CS(=O)(=O)c1nn2cc(-c3cc4ccccc4o3)nc2s1
IC50 [2]: > 30 µM

COc1cc(OCc2cccc(Cl)c2)c2cc(-c3cn4nc(OC)sc4n3)oc2c1
IC50 [1]: 0.68 µM

CCc1nn2cc(-c3cc4ccccc4o3)nc2s1 [US9862730, Example 47]
IC50 [2]: 2.4 µM

COc1cc(OCc2ccccc2Cl)c2cc(-c3cn4nc(OC)sc4n3)oc2c1
IC50 [1]: > 3 µM

COc1cc(OCc2ccc(OCc3ccccc3)cc2)c2cc(-c3cn4nc(OC)sc4n3)oc2c1
IC50 [1]: 0.55 µM

COc1nn2cc(-c3cc4c(OCc5ccccc5)cccc4o3)nc2s1 [US9862730, Example 210]
IC50 [1]: 4.1 µM
IC50 [2]: 3.1 µM

COc1cc(OCc2cccc(CO)c2)c2cc(-c3cn4nc(OC)sc4n3)oc2c1
IC50 [1]: > 1 µM

CNc1nn2cc(-c3cc4ccccc4o3)nc2s1 [US9862730, Example 69]
IC50 [2]: > 30 µM

COc1cc(OCc2cccc(Sc3ccccc3)c2)c2cc(-c3cn4nc(OC)sc4n3)oc2c1
IC50 [1]: 0.41 µM

Cc1nn2cc(-c3cc4ccccc4o3)nc2s1 [US9862730, Example 41]
IC50 [2]: > 30 µM

CSc1nn2cc(-c3cc4ccccc4o3)nc2s1 [US9862730, Example 1]
IC50 [2]: 0.27 µM

COc1ccc(COc2cc(OC)cc3oc(-c4cn5nc(OC)sc5n4)cc23)cc1
IC50 [1]: > 3 µM

COc1nn2cc(-c3cc4c(OC)cccc4o3)nc2s1 [US9862730, Example 11]
IC50 [1]: 1.3 µM
IC50 [2]: 0.35 µM

CC(C)Oc1nn2cc(-c3cc4ccccc4o3)nc2s1
IC50 [2]: > 30 µM

COc1cc(OCCOCc2ccccc2)c2cc(-c3cn4nc(OC)sc4n3)oc2c1
IC50 [1]: 0.5 µM

COc1nn2cc(-c3cc4ccc(OCc5ccccc5)cc4o3)nc2s1 [US9862730, Example 104]
IC50 [1]: > 30 µM
IC50 [2]: 1.8 µM

COc1cc(OCc2cccc(O)c2)c2cc(-c3cn4nc(OC)sc4n3)oc2c1
IC50 [1]: 2.7 µM

COc1nn2cc(-c3cc4ccccc4o3)nc2s1
IC50 [1]: 15 µM
IC50 [2]: 0.24 µM

COc1cc(OC)c2cc(-c3cn4nc(OC)sc4n3)oc2c1 [US9862730, Example 73]
IC50 [1]: 0.53 µM
IC50 [2]: 0.074 µM

COc1nn2cc(-c3cc4c(OC)ccc(OC)c4o3)nc2s1 [US9862730, Example 103]
IC50 [1]: 10 µM
IC50 [2]: 2.1 µM

COc1cc(OCCc2ccccc2)c2cc(-c3cn4nc(OC)sc4n3)oc2c1
IC50 [1]: 0.78 µM

COc1cc(OCc2cccc(C#N)c2)c2cc(-c3cn4nc(OC)sc4n3)oc2c1
IC50 [1]: 0.82 µM

COc1cccc(COc2cc(OC)cc3oc(-c4cn5nc(OC)sc5n4)cc23)c1
IC50 [1]: > 1 µM

COc1cc(OCc2cccc(C(F)(F)F)c2)c2cc(-c3cn4nc(OC)sc4n3)oc2c1
IC50 [1]: 0.44 µM

COc1cc(OCc2ccc(Cl)cc2)c2cc(-c3cn4nc(OC)sc4n3)oc2c1
IC50 [1]: > 1 µM

COc1cc(OCc2cccc(Oc3ccccc3)c2)c2cc(-c3cn4nc(OC)sc4n3)oc2c1
IC50 [1]: 0.39 µM

COc1cc(OCc2ccccc2C(F)(F)F)c2cc(-c3cn4nc(OC)sc4n3)oc2c1
IC50 [1]: > 1 µM

CCOc1nn2cc(-c3cc4ccccc4o3)nc2s1
IC50 [2]: 2.1 µM

COc1cc(OCc2cccc(COc3ccccc3)c2)c2cc(-c3cn4nc(OC)sc4n3)oc2c1
IC50 [1]: 0.6 µM

COc1cc(OCc2ccccc2OC)c2cc(-c3cn4nc(OC)sc4n3)oc2c1
IC50 [1]: > 1 µM
